This is an account of results in patent US20180325889A1, “IMMUNOREGULATORY AGENTS” (FLEXUS BIOSCIENCES, INC., priority 2014, published 2018).

The structures appear in SMILES notation.

For the first data set, the target named is T1, human IDO1/HEK293 cells (Homo sapiens, UniProt P14902).
T1 construct: expressed in transfected cells
T1 sequence (P14902 whole entry): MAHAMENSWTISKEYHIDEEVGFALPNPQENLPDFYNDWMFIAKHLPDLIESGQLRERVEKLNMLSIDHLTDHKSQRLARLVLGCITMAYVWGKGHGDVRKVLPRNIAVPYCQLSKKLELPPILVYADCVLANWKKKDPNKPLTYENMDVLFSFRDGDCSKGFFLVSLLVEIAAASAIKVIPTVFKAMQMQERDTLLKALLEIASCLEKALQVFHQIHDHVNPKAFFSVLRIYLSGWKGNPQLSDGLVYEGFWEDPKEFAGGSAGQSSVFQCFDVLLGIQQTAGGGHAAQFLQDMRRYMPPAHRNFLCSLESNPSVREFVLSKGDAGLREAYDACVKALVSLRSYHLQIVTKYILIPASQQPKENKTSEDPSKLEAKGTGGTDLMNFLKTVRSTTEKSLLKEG
Kind of data set: HEK Human IDO-1 cell-based IDO inhibition assay (kynurenine production). To be noted: HEK293 cells stably expressing human IDO1, 20 hours incubation, absorbance at 490 nm; read-out: HEK Human IDO-1 Bio Activity (IDO IC50). In short, it runs like this: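 Stopped with 0.2% TCA, 50 °C 30 min; supernatant mixed with 0.2% Ehrlich reagent, 30 min RT, kynurenine read as absorbance at 490 nm.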
As usually defined, the IC50 is the concentration that gives 50% inhibition. Turning to `C[C@@H](NC(=O)c1ccccc1-c1ccccc1)[C@H]1CC[C@@H](c2ccnc3ccc(F)cc32)CC1` [Example 69, N-((R)-1-((1s,4S)-4-(6-fluoroquinolin-4-yl)cyclohexyl)ethyl)-[1,1′-biphenyl]-2-carboxamide], the IC50 is less than 50 nM.

Take `O=C(NCC1(O)CCN(c2ccnc3ccc(F)cc23)CC1)c1ccc(Cl)cc1` [Example 81, 4-Chloro-N-((1-(6-fluoroquinolin-4-yl)-4-hydroxypiperidin-4-yl)methyl)benzamide]: the IC50 is less than 2000 nM. On the same count and under the same terms, the figure for `CCC(NC(=O)c1ccc(Cl)cc1)[C@H]1CC[C@@H](Oc2ccnc3ccc(C(F)(F)F)cc23)CC1` (mixture of isomers) [Example 78, (±)-4-Chloro-N-(1-((cis)-4-((6-(trifluoromethyl)quinolin-4-yl)oxy)cyclohexyl)propyl)benzamide] is less than 2000 nM; for `CCC(NC(=O)c1ccc(Cl)cc1)C1CCC(c2cccc(C(F)F)n2)CC1` (single isomer, unassigned) [Example 231d, 4-chloro-N-(1-(4-(6-(difluoromethyl)pyridin-2-yl)cyclohexyl)propyl)benzamide] it is less than 2000 nM. For the compound `Cc1ccc(S(=O)(=O)N[C@H](C)[C@H]2CC[C@@H](c3ccnc4ccc(F)cc43)CC2)cc1` [Example 41, N-((R)-1-((1s,4S)-4-(6-fluoroquinolin-4-yl)cyclohexyl)ethyl)-4-methylbenzenesulfonamide], the 50% inhibitory concentration (IC50) was less than 250 nM. Still for that read-out and setting: the result for `C=CC[C@@H](NC(=O)c1ccc(-c2ccccc2)cc1)[C@H]1CC[C@@H](c2ccnc3ccc(F)cc32)CC1` [Example 199, N—((R)-1-((is, 4S)-4-(6-fluoroquinolin-4-yl)cyclohexyl)but-3-en-1-yl)-[1,1′-biphenyl]-4-carboxamide] reads less than 2000 nM. In the case of `C[C@@H](NC(=O)c1ccc(F)cc1)[C@H]1CC[C@@H](c2ccnc3ccc(F)cc32)CC1` [Example 60, 4-fluoro-N-((R)-1-((1s,4S)-4-(6-fluoroquinolin-4-yl)cyclohexyl)ethyl)benzamide], the IC50 was less than 50 nM. Same read-out and setting: the result for `Cc1nccc(O[C@H]2CC[C@H](C(C)NC(=O)c3ccc(Cl)cc3)CC2)c1Cl` (mixture of isomers) [Example 207, rac-4-chloro-N-(1-((trans)-4-((3-chloro-2-methylpyridin-4-yl)oxy)cyclohexyl)ethyl)benzamide] reads less than 50 nM; that for `CCC(NC(=O)c1ccc(C#N)cc1)C1CCC(c2ccnc3ccc(F)cc23)CC1` (single isomer, unassigned) [Example 165b, 4-Cyano-N-(1-(4-(6-fluoroquinolin-4-yl)cyclohexyl)propyl)benzamide], less than 50 nM.

Turning to `CCC(NC(=O)c1ccc(C#N)cc1)C1CCC(c2ccnc3ccc(F)cc23)CC1` (single isomer, unassigned) [Example 165c, 4-Cyano-N-(1-(4-(6-fluoroquinolin-4-yl)cyclohexyl)propyl)benzamide], the IC50 was less than 50 nM. Same read-out and setting: the figure for `C[C@@H](NC(=O)c1ccc(-c2ncnn2C)cc1)[C@H]1CC[C@@H](c2ccnc3ccc(F)cc32)CC1` [Example 251, N-((R)-1-((1s,4S)-4-(6-fluoroquinolin-4-yl)cyclohexyl)ethyl)-4-(1-methyl-1H-1,2,4-triazol-5-yl)benzamide] is less than 250 nM; for `C[C@@H](NC(=O)c1ccc(Cl)cc1)[C@H]1CC[C@@H](c2ccnc3ccc(F)cc32)CC1` [Example 47, 4-Chloro-N—((R)-1-((1 s,4S)-4-(6-fluoroquinolin-4-yl)cyclohexyl)ethyl)benzamide] it is less than 50 nM. Same read-out and setting: the result for `Cc1nccc(C2CCC(C(C)NC(=O)c3ccc(Cl)cc3)CC2)c1C` (stereo not drawn) [Example 159a, 4-chloro-N-(1-(4-(2,3-dimcthylpyridin-4-yl)cyclohexyl)ethyl)benzamide] reads less than 50 nM; that for `CC(C(=O)N[C@H]1CC[C@H](c2ccnc3ccc(F)cc32)CC1)c1ccc(Cl)cc1` (stereo partly drawn) [Example 145, 2-(4-chlorophenyl)-N-(trans-4-(6-fluoroquinolin-4-yl)cyclohexyl)propanamide], less than 2000 nM. Take `C=CC[C@@H](NC(=O)c1ccc(Cl)cc1)[C@H]1CC[C@@H](c2ccnc3ccc(F)cc32)CC1` [Example 198, 4-chloro-N—((R)-1-((1s, 4S)-4-(6-fluoroquinolin-4-yl)cyclohexyl)but-3-en-1-yl) benzamide]: the IC50 was less than 50 nM. The same measure, in the same setting: the figure for `C[C@@H](NC(=O)c1ccc(C#N)cc1)[C@H]1CC[C@@H](c2ccnc3ccc(F)cc32)CC1` [Example 176, 4-cyano-N-((R)-1-(cis-4-(6-fluoroquinolin-4-yl)cyclohexyl)ethyl)benzamide] is less than 50 nM; for `COc1nc(-c2ccc(C(=O)N[C@H](C)[C@H]3CC[C@@H](c4ccnc5ccc(F)cc54)CC3)cc2)cs1` [Example 241, N-((R)-1-((1s,4S)-4-(6-fluoroquinolin-4-yI)cyclohexyl)ethyl)-4-(2-methoxythiazol-4-yl)benzamide] it is less than 50 nM.

System in the next data set: not given
Test: not given
Settings: not given
In general, melting point refers to the temperature, or range, at which the solid turns liquid. `O=C(NCC1(O)CCN(c2ccnc3ccc(F)cc23)CC1)c1ccc(Cl)cc1` [Example 81, 4-Chloro-N-((1-(6-fluoroquinolin-4-yl)-4-hydroxypiperidin-4-yl)methyl)benzamide] showed a melting point of 91 to 94 °C.
